# Marks after values point to notes of the source that are not given here.
# Key:
# [1] = tested on: hippocampal ischaemia by bilateral occlusion of the carotid arteries; test: Ischaemia induced in the gerbil by bilateral occlusion of the carotid arteries (hippocampal neuroprotection); format: in vivo; conditions: for area (mm2): mean ± SD; for % mortality: ischaemia group 28.57
# Protocol: It was accordingly decided to investigate the possible neuroprotective effects of neboglamine and CR 2863 on a model of hippocampal ischaemia brought about in the gerbil by bilateral occlusion of the carotid arteries.
# In brief, halothane-anaesthetised animals are subjected to bilateral occlusion of the carotid arteries for 5 minutes. After 7 days, the animals are sacrificed, the brain is removed, deep frozen and 10 μm sections from the hippocampal area are prepared which are stained with cresyl violet. A quantitative determination (in mm^2) of the area occupied by […] pyramidal neurons is then performed by means of an image analyser. The type of hippocampal neurodegeneration arising from this model of ischaemia involves a significant reduction in the area of the neuronal nuclei. The drugs were administered intraperitoneally (i.p.) 1 h before the ischaemia.
# [2] = tested on: PCP-induced inhibition of the acoustic prestimulus (PPI); test: Reversion of PCP-induced inhibition of the acoustic prestimulus (PPI) in the rat; format: in vivo
# From the text: The first model used was the study of PCP-induced inhibition of the acoustic prestimulus (PPI) in the rat.
# This phenomenon is known as “pre-pulse inhibition” (PPI). […] Such a deficit may be reproduced experimentally with drugs which induce psychotic phenomena, such dopamine agonists and NMDA antagonists.
# The method is based on that reported by Swerdlow et al. [J. Pharmacol. Exp. Ther. 256 530-536 (1991)] with slight modifications. An acrylic cylinder is used which is equipped with a piezoelectric sensor mounted under the cylinder which detects and transduces movements of the cylinder. A background noise of 60 dB is provided and subsequently two acoustic stimuli separated by 500 ms, the first of which is 20 dB above the background noise, while the second (startle stimulus) is 120 dB for a duration of 40 ms. The session of 30 trials at 30 second intervals with an overall duration of approx. 15 minutes involved subjecting the animal randomly to a startle stimulus either isolated or preceded by the low intensity stimulus. PPI was calculated as a percentage reduction in the level of startle in the presence of the prestimulus compared to that without the acoustic prestimulus. Rats weighing approx. 250 g were used, which were treated intraperitoneally (i.p.) with the products under investigation 15 minutes prior to subcutaneous (s.c.) administration of 3 mg/kg of PCP and 30 minutes before the beginning of the experiment.
# [3] = tested on: NMDA-evoked 3H-dopamine release in slices of rat prefrontal cortex; test: PCP-induced blocking of NMDA-evoked 3H-dopamine release in slices of rat frontal cortex; format: cell-based
# Protocol: Neboglamine's ability to reverse the effect of PCP at a neuronal level was also evaluated in an in vitro test carried out on slices of rat frontal cortex.
# The method involved preparing 0.4 mm thick cortical slices, incubating them for 20 minutes with ^3H-dopamine in physiological solution in the presence of 0.1 μM 6-nitroquipazine and 0.1 μM nisoxetine (selective serotonin and noradrenaline reuptake inhibitors), aerated with 95% O2+5% CO2 at 37° C., which, after appropriate washing with artificial cerebrospinal fluid (aCSF), were superperfused for 30 minutes with aCFS at a rate of 1 ml/minute to equilibrate the system. Then, PCP and neboglamine were added at the stated concentrations to the perfusion liquid for the entire duration of the experiment, while, after 45 minutes, NMDA (100 μM) stimulation was provided for 5 minutes. Another four 5 minute fractions of eluate were then collected and their radioactivity determined.
# The effect of the drugs was evaluated by calculating the ratio between the percentage radioactivity present in the effluent fraction corresponding to the maximum effect and that in the first effluent fraction collected.
# [4] = tested on: PCP-induced depression (swimming test); test: Reversion of PCP-induced depression in the mouse swimming test; format: in vivo
# From the text: An animal model of depression (which may be considered as a negative symptom of schizophrenia) was then used to study the activity of neboglamine on the PCP-induced depressive effects in the mouse using the swimming test according to Porsolt et al. [Arch. Int. Pharmadyn. 229, 327-336 (1977)].
# The test involves inducing a state of depression in the animal, which is forced to swim in a glass cylinder from which it cannot escape. The state of depression was accentuated by 14 days' pre-treatment with a daily 10 mg/kg (s.c.) injection of PCP. On the 15th day, the animals were additionally pretreated (i.p.) with physiological solution or neboglamine 30 minutes before the beginning of the test. The duration of immobility (sign of depression) in seconds was evaluated during the experiment of an overall duration of 360 seconds. The results obtained in this manner, calculated between the 3rd and 6th minute of the experiment, i.e. for a period of […], are shown in Table 2.
smiles,measurement,setting,value
"CC1(C)CCC(N)CC1 [CR 2863, 4,4-dimethylcyclohexylamine]",% protection,[1]; 4 mg/kg i.p.,24.88%
same,area (mm2),"[1]; 4 mg/kg i.p. 1 h before ischaemia, sham 22.39, ischaemia 5.55",9.74 ± 0.9*^+ mm2
same,% mortality,[1]; 4 mg/kg i.p.,11.11%
same,% protection,[1]; 8 mg/kg i.p.,39.25%
same,area (mm2),[1]; 8 mg/kg i.p. 1 h before ischaemia,12.16 ± 5.49 mm2
same,% mortality,[1]; 8 mg/kg i.p.,5.88%
same,% protection,[1]; 16 mg/kg i.p.,57.82%
same,area (mm2),[1]; 16 mg/kg i.p. 1 h before ischaemia,15.23 ± 5.49*^+ mm2
same,times less active than the parent (neboglamine),[2]; rat PPI model,approx. 3 times
same,PPI (% inhibition),"[2]; rat, drug 10 mg/kg i.p. 15 min before PCP 3 mg/kg s.c., n=10",38* %
same,% inhibition by PCP,"[2]; rat, drug 10 mg/kg i.p. + PCP, calculated by formula",51.4%
CN[C@H](CC(=O)O)C(=O)O [NMDA],% increase in NMDA-evoked 3H-dopamine release,[3]; Control: NMDA 100 μM alone,120%
"c1ccc(C2(N3CCCCC3)CCCCC2)cc1 [PCP, Phenylcyclidine]",% increase in NMDA-evoked 3H-dopamine release,[3]; NMDA 100 μM + PCP 0.1 μM,64%
same,PPI (% inhibition),"[2]; rat, PCP only group, 3 mg/kg s.c., control 55%",20%
same,increase of duration of immobility relative to untreated control group,[4]; 2 weeks' chronic PCP,approx. 3 times
same,Immobility,"[4]; PCP only group, 14 days 10 mg/kg s.c. daily, control 48",130 s
